Measured values from patent publication US20190343908A1, “Therapeutic Combination for the Treatment of Cancer” (Nerium Biotechnology Inc., priority 2011, published 2019).

Tests used:
[1] = tested on: HCT-15 (colorectal cancer); assay: Methyl-Tetrazolium viability assay, HCT-15; type: cell-based, human; parameters: key to MTT Average: absorbance (optical density) at 570 nm, second wavelength subtracted; details: for MTT Average 24 h / MTT Average 48 h / MTT Average 72 h: HCT-15, Run 1
Text: (§1) Three different viability assays were chosen to complement each other and yielded results dependent on concentration and cell line: the Methyl Tetrazolium dye assay, the Sulforhodamine B fluorescent dye assay, and the Crystal Violet dye assay.
The Methyl-Tetrazolium dye assay measures the activity of enzymes in mitochondria. The dye precursor is taken up by cells, where it undergoes reduction to the purple formazan. It measures only the mitochondrial activity and, thus, it is not always a reliable indication of whether the cells themselves are alive or dead, since even a recently dead cell has […] enzyme activity in mitochondria. Intracellular glucose concentration, pH, and time before assay all affect the measurements.
(§2) The Methyl Tetrazolium, Sulforhodamine B, and Crystal Violet assays were used to assess cell viabilities. The incubation times were 24 hours, 48 hours, and 72 hours. The Nerium oleander extract Anvirzel™ (a hot water extract of oleander obtained from Salud Integral, Honduras) was tested in concentrations ranging from 0.01 ng/mL to 10 ng/mL.
(§3) Cells were detached by trypsinization (Trypsin-0.25% EDTA, Invitrogen, 25200-072) during the logarithmic phase of culture growth and plated in 96-well plates (18.000 cells/well) (Corning, Costar 359) in a final volume of 200 μl of medium per well. […] The absorbance was measured after 24 hours, 48 hours, and 72 hours of incubation.
For the Methyl-Tetrazolium assay, the dye (Sigma, M2128; 5 mg/mL, diluted in phosphate-buffered saline) was added to each well and plates were incubated for 3 hours at 37° C. After the end of the incubation period, the medium was discarded and the cells were rinsed with phosphate-buffered saline. Finally, the formazan crystals were dissolved in dimethylsulphoxide (Sigma, D4540).
(§4) The optical density of each plate was measured on a μQuant spectrophotometer and the data were analyzed with Gen5 software (μQuant Biomolecular Spectrophotometer MQX200 and Gen5™ Microplate Data Collection & Analysis software, BioTek® Instruments. Inc, April 2008). Absorbance was measured at 570 nm for all assays and a second wavelength was measured in order to subtract noise. For the Methyl-Tetrazolium assay this second wavelength was 630 nm and for the Sulforhodamine B and Crystal Violet assays it was 690 nm.

[2] = tested on: PC3 (human prostate cancer); assay: Sulforhodamine B viability assay, PC3; type: cell-based
Text: as §1
The Sulforhodamine B and Crystal Violet assays provide information about protein and were used to complement the Methyl-Tetrazolium dye assay. […] It is used for the quantification of cellular proteins of cultured cells. The assay using Crystal Violet, a dye that binds electrostatically to proteins and stains DNA, provides a reliable, simple assay for measuring viability of cells.
as §2, §3
For the Sulforhodamine B assay, 96-well plates were fixed by 10% trichloroacetic acid (Fluka, 91228) and were incubated at 4° C. for 1 hour. Afterwards, plates were rinsed with water and cells were stained with 0.4% Sulforhodamine B (Sigma, 341738), dissolved in 1% acetic acid (Carlo Ebra, 401422) for 15 minutes at room temperature (RT). The unbound stain was washed twice with 1% acetic acid. Finally, 10 mM Tris Buffer pH 10.5 (Sigma, T6791) was added to dissolve the dye.
as §4

SMILES: N.N.[Cl][Pt][Cl] [cisplatin]
- MTT Average 24 h ([1]; 0.1 μg/ml CDDP): 0.218
- MTT Average 48 h ([1]; 0.1 μg/ml CDDP): 0.324
- MTT Average 72 h ([1]; 0.1 μg/ml CDDP): 0.464
- MTT Average 24 h ([1]; 1 μg/ml CDDP): 0.032
- MTT Average 48 h ([1]; 1 μg/ml CDDP): 0.032
- MTT Average 72 h ([1]; 1 μg/ml CDDP): 0.025
- MTT Average 24 h ([1]; 10 μg/ml CDDP): 0.1
- MTT Average 48 h ([1]; 10 μg/ml CDDP): 0.046
- MTT Average 72 h ([1]; 10 μg/ml CDDP): 0.03
- MTT Average 24 h ([1]; 100 μg/ml CDDP): 0.034
- MTT Average 48 h ([1]; 100 μg/ml CDDP): 0.023
- MTT Average 72 h ([1]; 100 μg/ml CDDP): 0.017
- MTT Average ([1]; Run 2, 24 h, 0.1 μg/ml CDDP): 0.141
- MTT Average ([1]; Run 2, 24 h, 1 μg/ml CDDP): 0.03
- MTT Average ([1]; Run 2, 24 h, 10 μg/ml CDDP): 0.094
- MTT Average ([1]; Run 2, 24 h, 100 μg/ml CDDP): 0.025
- MTT Average ([1]; Run 2, 48 h, 0.1 μg/ml CDDP): 0.233
- MTT Average ([1]; Run 2, 48 h, 1 μg/ml CDDP): 0.031
- MTT Average ([1]; Run 2, 48 h, 10 μg/ml CDDP): 0.067
- MTT Average ([1]; Run 2, 48 h, 100 μg/ml CDDP): 0.014
- MTT Average ([1]; Run 2, 72 h, 0.1 μg/ml CDDP): 0.214
- MTT Average ([1]; Run 2, 72 h, 1 μg/ml CDDP): 0.016
- MTT Average ([1]; Run 2, 72 h, 10 μg/ml CDDP): 0.041
- MTT Average ([1]; Run 2, 72 h, 100 μg/ml CDDP): 0.01
- MTT Average ([1]; Run 3, 24 h, 0.1 μg/ml CDDP): 0.294
- MTT Average ([1]; Run 3, 24 h, 1 μg/ml CDDP): 0.028
- MTT Average ([1]; Run 3, 24 h, 10 μg/ml CDDP): 0.137
- MTT Average ([1]; Run 3, 24 h, 100 μg/ml CDDP): 0.039
- MTT Average ([1]; Run 3, 48 h, 0.1 μg/ml CDDP): 0.391
- MTT Average ([1]; Run 3, 48 h, 1 μg/ml CDDP): 0.035
- MTT Average ([1]; Run 3, 48 h, 10 μg/ml CDDP): 0.104
- MTT Average ([1]; Run 3, 48 h, 100 μg/ml CDDP): 0.026
- MTT Average ([1]; Run 3, 72 h, 0.1 μg/ml CDDP): 0.457
- MTT Average ([1]; Run 3, 72 h, 1 μg/ml CDDP): 0.039
- MTT Average ([1]; Run 3, 72 h, 10 μg/ml CDDP): 0.043
- MTT Average ([1]; Run 3, 72 h, 100 μg/ml CDDP): 0.017
- SRB Average ([2]; PC3 Run 1, 24 h, 0.1 μg/ml CDDP): 2.058
- SRB Average ([2]; PC3 Run 1, 24 h, 1 μg/ml CDDP): 1.352
- SRB Average ([2]; PC3 Run 1, 24 h, 10 μg/ml CDDP): 1.604
- SRB Average ([2]; PC3 Run 1, 24 h, 100 μg/ml CDDP): 1.605
- SRB Average ([2]; PC3 Run 1, 48 h, 0.1 μg/ml CDDP): 2.343
- SRB Average ([2]; PC3 Run 1, 48 h, 1 μg/ml CDDP): 1.677
- SRB Average ([2]; PC3 Run 1, 48 h, 10 μg/ml CDDP): 2.159
- SRB Average ([2]; PC3 Run 1, 48 h, 100 μg/ml CDDP): 1.851
- SRB Average ([2]; PC3 Run 1, 72 h, 0.1 μg/ml CDDP): 2.256
- SRB Average ([2]; PC3 Run 1, 72 h, 1 μg/ml CDDP): 2.227
- SRB Average ([2]; PC3 Run 1, 72 h, 10 μg/ml CDDP): 2.554
- SRB Average ([2]; PC3 Run 1, 72 h, 100 μg/ml CDDP): 1.543
- SRB Average ([2]; PC3 Run 2, 24 h, 0.1 μg/ml CDDP): 1.578
- SRB Average ([2]; PC3 Run 2, 24 h, 1 μg/ml CDDP): 1.469
- SRB Average ([2]; PC3 Run 2, 24 h, 10 μg/ml CDDP): 1.403
- SRB Average ([2]; PC3 Run 2, 24 h, 100 μg/ml CDDP): 1.5
- SRB Average ([2]; PC3 Run 2, 48 h, 0.1 μg/ml CDDP): 2.279
- SRB Average ([2]; PC3 Run 2, 48 h, 1 μg/ml CDDP): 2.066
- SRB Average ([2]; PC3 Run 2, 48 h, 10 μg/ml CDDP): 2.144
- SRB Average ([2]; PC3 Run 2, 48 h, 100 μg/ml CDDP): 1.77
- SRB Average ([2]; PC3 Run 2, 72 h, 0.1 μg/ml CDDP): 2.069
- SRB Average ([2]; PC3 Run 2, 72 h, 1 μg/ml CDDP): 1.64
- SRB Average ([2]; PC3 Run 2, 72 h, 10 μg/ml CDDP): 1.63
- SRB Average ([2]; PC3 Run 2, 72 h, 100 μg/ml CDDP): 1.271
- SRB Average ([2]; PC3 Run 3, 24 h, 0.1 μg/ml CDDP): 1.595
- SRB Average ([2]; PC3 Run 3, 24 h, 1 μg/ml CDDP): 1.326
- SRB Average ([2]; PC3 Run 3, 24 h, 10 μg/ml CDDP): 1.24
- SRB Average ([2]; PC3 Run 3, 24 h, 100 μg/ml CDDP): 1.125
- SRB Average ([2]; PC3 Run 3, 48 h, 0.1 μg/ml CDDP): 1.52
- SRB Average ([2]; PC3 Run 3, 48 h, 1 μg/ml CDDP): 1.1
- SRB Average ([2]; PC3 Run 3, 48 h, 10 μg/ml CDDP): 1.474
- SRB Average ([2]; PC3 Run 3, 48 h, 100 μg/ml CDDP): 1.153
- SRB Average ([2]; PC3 Run 3, 72 h, 0.1 μg/ml CDDP): 1.643
- SRB Average ([2]; PC3 Run 3, 72 h, 1 μg/ml CDDP): 1.069
- SRB Average ([2]; PC3 Run 3, 72 h, 10 μg/ml CDDP): 1.122
- SRB Average ([2]; PC3 Run 3, 72 h, 100 μg/ml CDDP): 0.839
